According to the OligoGym collection:
HELM strings list units from the 5' end as sugar, base in round brackets, then linkage (d deoxyribose, r ribose, m 2'-O-methyl, p phosphodiester). Strings are as the collection lists them; they lack the last nucleoside at the 3' end of the tested compound. [moe] = 2'-O-(2-methoxyethyl) (MOE); [sp] = phosphorothioate linkage; [m5C] = 5-methylcytosine

Target: SCN2A
Assay: mouse, dose not given
Details: ASO

3 h FOB score, 3 score 0-7:
RNA1{[moe](A)[sp].[moe](T)p.[moe](T)p.[moe]([m5C])p.[moe](T)p.d(G)[sp].d([m5C])[sp].d(A)[sp].d(T)[sp].d(G)[sp].d(T)[sp].d(A)[sp].d(A)[sp].d([m5C])[sp].d([m5C])[sp].[moe](T)p.[moe](T)p.[moe](T)[sp].[moe](A)}$$$$ (last 3' nucleoside missing)

3 h FOB score, 1 score 0-7:
RNA1{[moe](A)[sp].[moe](T)p.[moe](A)p.[moe](T)p.[moe](T)p.d(T)[sp].d(T)[sp].d(T)[sp].d([m5C])[sp].d(T)[sp].d(A)[sp].d([m5C])[sp].d(A)[sp].d([m5C])[sp].d(T)[sp].[moe](G)p.[moe]([m5C])p.[moe](T)[sp].[moe](G)}$$$$ (last 3' nucleoside missing)
RNA1{[moe](A)[sp].[moe](T)p.[moe](A)p.[moe](T)p.d(T)[sp].d(T)[sp].d(T)[sp].d(T)[sp].d([m5C])[sp].d(T)[sp].d(A)[sp].d([m5C])[sp].d(A)[sp].d([m5C])[sp].[moe](T)p.[moe](G)p.[moe]([m5C])p.[moe](T)[sp].[moe](G)}$$$$ (last 3' nucleoside missing)
RNA1{[moe](A)[sp].[moe](T)p.[moe](G)p.[moe](G)p.[moe](T)p.d(T)[sp].d(G)[sp].d(G)[sp].d(A)[sp].d(A)[sp].d(A)[sp].d(T)[sp].d(A)[sp].d([m5C])[sp].d(A)[sp].[moe](G)p.[moe]([m5C])p.[moe](T)[sp].[moe](G)}$$$$ (last 3' nucleoside missing)
RNA1{[moe](A)[sp].[moe](T)p.[moe](T)p.[moe](T)p.[moe]([m5C])p.[moe](T)p.d(A)[sp].d(T)[sp].d(A)[sp].d(A)[sp].d([m5C])[sp].d(T)[sp].d([m5C])[sp].d(A)[sp].d(G)[sp].d([m5C])[sp].[moe](A)p.[moe](A)[sp].[moe]([m5C])}$$$$ (last 3' nucleoside missing)
RNA1{[moe](A)[sp].[moe](T)p.[moe](T)p.[moe]([m5C])p.[moe](T)p.d(A)[sp].d(T)[sp].d(T)[sp].d(T)[sp].d(T)[sp].d(A)[sp].d(T)[sp].d(A)[sp].d(A)[sp].d(A)[sp].[moe](T)p.[moe](G)p.[moe]([m5C])[sp].[moe]([m5C])}$$$$ (last 3' nucleoside missing)
RNA1{[moe](A)[sp].[moe](T)p.[moe]([m5C])p.[moe](A)p.[moe]([m5C])p.d(T)[sp].d(T)[sp].d(T)[sp].d([m5C])[sp].d(A)[sp].d(T)[sp].d([m5C])[sp].d([m5C])[sp].d(A)[sp].d([m5C])[sp].[moe](G)p.[moe](A)p.[moe]([m5C])[sp].[moe](A)}$$$$ (last 3' nucleoside missing)

3 h FOB score, 2 score 0-7:
RNA1{[moe](A)[sp].[moe](T)p.[moe](A)p.[moe](T)p.[moe](T)p.[moe](T)p.d(T)[sp].d(T)[sp].d([m5C])[sp].d(T)[sp].d(A)[sp].d([m5C])[sp].d(A)[sp].d([m5C])[sp].d(T)[sp].d(G)[sp].[moe]([m5C])p.[moe](T)[sp].[moe](G)}$$$$ (last 3' nucleoside missing)
RNA1{[moe](A)[sp].[moe](T)p.[moe](T)p.[moe]([m5C])p.[moe](T)p.[moe](A)p.d(T)[sp].d(T)[sp].d(T)[sp].d(T)[sp].d(A)[sp].d(T)[sp].d(A)[sp].d(A)[sp].d(A)[sp].d(T)[sp].[moe](G)p.[moe]([m5C])[sp].[moe]([m5C])}$$$$ (last 3' nucleoside missing)

3 h FOB score, 0.33 score 0-7:
RNA1{[moe](A)[sp].[moe](T)p.[moe](G)p.[moe](T)p.d(A)[sp].d(A)[sp].d(T)[sp].d([m5C])[sp].d(A)[sp].d([m5C])[sp].d(T)[sp].d(T)[sp].d(T)[sp].d([m5C])[sp].[moe](A)p.[moe](T)p.[moe]([m5C])p.[moe]([m5C])[sp].[moe](A)}$$$$ (last 3' nucleoside missing)

3 h FOB score, 0.67 score 0-7:
RNA1{[moe](A)[sp].[moe](G)p.[moe]([m5C])p.[moe](T)p.[moe]([m5C])p.d(T)[sp].d(T)[sp].d(T)[sp].d(T)[sp].d(T)[sp].d([m5C])[sp].d(A)[sp].d([m5C])[sp].d(T)[sp].d(T)[sp].[moe](T)p.[moe](T)p.[moe](G)[sp].[moe](G)}$$$$ (last 3' nucleoside missing)

3 h FOB score, 2.67 score 0-7:
RNA1{[moe](A)[sp].[moe](T)p.[moe](T)p.[moe]([m5C])p.d(T)[sp].d(A)[sp].d(T)[sp].d(T)[sp].d(T)[sp].d(T)[sp].d(A)[sp].d(T)[sp].d(A)[sp].d(A)[sp].[moe](A)p.[moe](T)p.[moe](G)p.[moe]([m5C])[sp].[moe]([m5C])}$$$$ (last 3' nucleoside missing)

3 h FOB score, 0 score 0-7:
RNA1{[moe](A)[sp].[moe](G)p.[moe]([m5C])p.[moe](A)p.d(T)[sp].d(A)[sp].d(T)[sp].d(T)[sp].d([m5C])[sp].d(T)[sp].d(A)[sp].d(A)[sp].d([m5C])[sp].d(A)[sp].[moe](T)p.[moe](G)p.[moe](G)p.[moe](T)[sp].[moe]([m5C])}$$$$ (last 3' nucleoside missing)
RNA1{[moe](A)[sp].[moe](G)p.[moe]([m5C])p.[moe](A)p.d(T)[sp].d(G)[sp].d(T)[sp].d(T)[sp].d(T)[sp].d(A)[sp].d(T)[sp].d([m5C])[sp].d(T)[sp].d(T)[sp].[moe](A)p.[moe](G)p.[moe](T)p.[moe](T)[sp].[moe]([m5C])}$$$$ (last 3' nucleoside missing)
RNA1{[moe](A)[sp].[moe](T)p.[moe](G)p.[moe](T)p.[moe](A)p.[moe](A)p.d(T)[sp].d([m5C])[sp].d(A)[sp].d([m5C])[sp].d(T)[sp].d(T)[sp].d(T)[sp].d([m5C])[sp].d(A)[sp].d(T)[sp].[moe]([m5C])p.[moe]([m5C])[sp].[moe](A)}$$$$ (last 3' nucleoside missing)
RNA1{[moe](A)[sp].[moe](T)p.[moe](G)p.[moe](T)p.[moe](A)p.[moe](A)p.d([m5C])[sp].d([m5C])[sp].d(T)[sp].d(T)[sp].d(T)[sp].d(A)[sp].d(T)[sp].d(A)[sp].d([m5C])[sp].d(A)[sp].[moe](T)p.[moe](T)[sp].[moe](T)}$$$$ (last 3' nucleoside missing)
RNA1{[moe](A)[sp].[moe](T)p.[moe](G)p.[moe](T)p.[moe](A)p.d(A)[sp].d(T)[sp].d([m5C])[sp].d(A)[sp].d([m5C])[sp].d(T)[sp].d(T)[sp].d(T)[sp].d([m5C])[sp].d(A)[sp].[moe](T)p.[moe]([m5C])p.[moe]([m5C])[sp].[moe](A)}$$$$ (last 3' nucleoside missing)
RNA1{[moe](A)[sp].[moe](T)p.[moe](G)p.[moe](T)p.[moe](A)p.d(A)[sp].d([m5C])[sp].d([m5C])[sp].d(T)[sp].d(T)[sp].d(T)[sp].d(A)[sp].d(T)[sp].d(A)[sp].d([m5C])[sp].[moe](A)p.[moe](T)p.[moe](T)[sp].[moe](T)}$$$$ (last 3' nucleoside missing)
RNA1{[moe](A)[sp].[moe](T)p.[moe](G)p.[moe](T)p.d(A)[sp].d(A)[sp].d([m5C])[sp].d([m5C])[sp].d(T)[sp].d(T)[sp].d(T)[sp].d(A)[sp].d(T)[sp].d(A)[sp].[moe]([m5C])p.[moe](A)p.[moe](T)p.[moe](T)[sp].[moe](T)}$$$$ (last 3' nucleoside missing)
RNA1{[moe](A)[sp].[moe](T)p.[moe](G)p.[moe]([m5C])p.[moe](A)p.[moe](T)p.d(A)[sp].d(A)[sp].d(T)[sp].d([m5C])[sp].d([m5C])[sp].d([m5C])[sp].d(A)[sp].d(T)[sp].d(T)[sp].d(A)[sp].[moe](T)p.[moe](A)[sp].[moe]([m5C])}$$$$ (last 3' nucleoside missing)
RNA1{[moe](A)[sp].[moe](T)p.[moe](G)p.[moe]([m5C])p.d(A)[sp].d(T)[sp].d(A)[sp].d(A)[sp].d(T)[sp].d([m5C])[sp].d([m5C])[sp].d([m5C])[sp].d(A)[sp].d(T)[sp].[moe](T)p.[moe](A)p.[moe](T)p.[moe](A)[sp].[moe]([m5C])}$$$$ (last 3' nucleoside missing)
RNA1{[moe](A)[sp].[moe](T)p.[moe](T)p.[moe](T)p.[moe]([m5C])p.d(T)[sp].d(A)[sp].d(T)[sp].d(A)[sp].d(A)[sp].d([m5C])[sp].d(T)[sp].d([m5C])[sp].d(A)[sp].d(G)[sp].[moe]([m5C])p.[moe](A)p.[moe](A)[sp].[moe]([m5C])}$$$$ (last 3' nucleoside missing)
RNA1{[moe](A)[sp].[moe](T)p.[moe](T)p.[moe](T)p.d([m5C])[sp].d(T)[sp].d(A)[sp].d(T)[sp].d(A)[sp].d(A)[sp].d([m5C])[sp].d(T)[sp].d([m5C])[sp].d(A)[sp].[moe](G)p.[moe]([m5C])p.[moe](A)p.[moe](A)[sp].[moe]([m5C])}$$$$ (last 3' nucleoside missing)
RNA1{[moe](A)[sp].[moe](T)p.[moe]([m5C])p.[moe](A)p.[moe](T)p.[moe](G)p.d([m5C])[sp].d(A)[sp].d(T)[sp].d(A)[sp].d(A)[sp].d(T)[sp].d([m5C])[sp].d([m5C])[sp].d([m5C])[sp].d(A)[sp].[moe](T)p.[moe](T)[sp].[moe](A)}$$$$ (last 3' nucleoside missing)
RNA1{[moe](A)[sp].[moe](T)p.[moe]([m5C])p.[moe](A)p.[moe](T)p.d(G)[sp].d([m5C])[sp].d(A)[sp].d(T)[sp].d(A)[sp].d(A)[sp].d(T)[sp].d([m5C])[sp].d([m5C])[sp].d([m5C])[sp].[moe](A)p.[moe](T)p.[moe](T)[sp].[moe](A)}$$$$ (last 3' nucleoside missing)
RNA1{[moe](A)[sp].[moe](T)p.[moe]([m5C])p.[moe](A)p.[moe]([m5C])p.[moe](T)p.d(T)[sp].d(T)[sp].d([m5C])[sp].d(A)[sp].d(T)[sp].d([m5C])[sp].d([m5C])[sp].d(A)[sp].d([m5C])[sp].d(G)[sp].[moe](A)p.[moe]([m5C])[sp].[moe](A)}$$$$ (last 3' nucleoside missing)
